Results published in US4971965A, “Antibiotics TAN-1057” (Takeda Chemical Industries, Ltd., priority 1988, dated 1990).
In brackets after ≈: the same amount, converted by molar mass.

Columns and labels:
[1] = test system: Mycoplasma garisepticum TB-3A; test: MIC against Mycoplasma (Table 3); format: cell-based; settings: TB3A, 120 h, 10^6 CFU/ml, Hayflick medium, 37° C., 5 days
[2] = test system: Peptostreptococcus anaerobium B-40; test: MIC against anaerobic bacteria (Table 3); format: cell-based; settings: B40, 10^6 CFU/ml, GAM medium, Gas Pack, 37° C., 18 hours
[3] = test system: Treponema hyodicenterie DJ70PI; test: MIC against Spirochaeta (Table 3); settings: 48 h
[4] = test system: Lactobacillus acidophilus ATCC 4356; test: MIC against anaerobic bacteria (Table 3); format: cell-based; settings: ATCC4356, 10^6 CFU/ml, GAM medium, Gas Pack, 37° C., 18 hours
Protocol: (§1) Inoculum size: 10^6 CFU/ml
(§2) ^Note 1 GAM medium(Nissui),
(§3) Gas Pack (BBL), 37° C., 18 hours

[5] = test system: Fusobacterium necroform VPI 2891; test: MIC against anaerobic bacteria (Table 3); format: cell-based; settings: VPI2891, 10^6 CFU/ml, GAM medium, Gas Pack, 37° C., 18 hours
Protocol: as §1, §2, §3

[6] = test system: Eubacterium sp. biurens 515; test: MIC against anaerobic bacteria (Table 3); format: cell-based; settings: 10^6 CFU/ml, GAM medium, Gas Pack, 37° C., 18 hours
Protocol: as §1, §2, §3

[7] = test system: Treponema hyodicenterie 78/A; test: MIC against Spirochaeta (Table 3); settings: 48 h
[8] = test system: Escherichia coli NIHJ JC 2; format: cell-based; settings: NIHJJC2, agar dilution, DY medium, pH unadjusted, approx. 10^6 CFU/ml, read-out: Minimum Inhibitory Conc. (MIC)
Method in brief: (§4)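 Inoculum ~10^6 CFU/ml; agar dilution; DY medium = Antibiotic Medium 3 + yeast extract, water, pH unadjusted.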

[9] = test system: Bacillus subtilis NIHJ PCI 219; format: cell-based; settings: read-out: Minimum Inhibitory Conc. (MIC)
Method in brief: as §4

Aeromonas caviae NCW = format: cell-based; settings: read-out: Minimum Inhibitory Conc. (MIC)
Method in brief: as §4

[10] = test system: Proteus vulgaris IFO 3988; format: cell-based; settings: IFO3988, agar dilution, DY medium, pH unadjusted, approx. 10^6 CFU/ml, read-out: Minimum Inhibitory Conc. (MIC)
Method in brief: as §4

Bacillus cereus FDA 5 = format: cell-based; settings: FDA5, agar dilution, DY medium, pH unadjusted, approx. 10^6 CFU/ml, read-out: Minimum Inhibitory Conc. (MIC)
Method in brief: as §4

[11] = test system: Bacillus megaterium IFO 12108; format: cell-based; settings: Priestia megaterium, IFO12108, read-out: Minimum Inhibitory Conc. (MIC)
Method in brief: as §4

Escherichia coli LD-2 = format: cell-based; settings: LD2, read-out: Minimum Inhibitory Conc. (MIC)
Method in brief: as §4

[12] = test system: Micrococcus luteus IFO 12708; format: cell-based; settings: IFO12708, read-out: Minimum Inhibitory Conc. (MIC)
Method in brief: as §4

[13] = test system: Staphylococcus aureus FDA 209P; format: cell-based; settings: FDA209P, read-out: Minimum Inhibitory Conc. (MIC)
Method in brief: as §4

[14] = test system: Klebsiella pnemoniae IFO 3317; format: cell-based; settings: IFO3317, agar dilution, DY medium, pH unadjusted, approx. 10^6 CFU/ml, read-out: Minimum Inhibitory Conc. (MIC)
Method in brief: as §4

[15] = test system: Streptococcus faecalis IFO 3989; format: cell-based; settings: Enterococcus faecalis, IFO3989, read-out: Minimum Inhibitory Conc. (MIC)
Method in brief: as §4

[16] = test system: Staphylococcus epidermidis IFO 3762; format: cell-based; settings: IFO3762, agar dilution, DY medium, pH unadjusted, approx. 10^6 CFU/ml, read-out: Minimum Inhibitory Conc. (MIC)
Method in brief: as §4

[17] = test system: Salmonella typhimurium IFO 12529; format: cell-based; settings: Salmonella enterica; agar dilution; DY medium, pH unadjusted; approx. 10^6 CFU/ml; read-out: Minimum Inhibitory Conc. (MIC)
Method in brief: as §4

[18] = test system: Acinetobacter calcoaceticus IFO 12552; format: cell-based; settings: IFO12552, agar dilution, DY medium, pH unadjusted, approx. 10^6 CFU/ml, read-out: Minimum Inhibitory Conc. (MIC)
Method in brief: as §4

[19] = test system: Staphylococcus aureus N247-21; test: Antibacterial activity against clinically isolated S. aureus (agar dilution MIC, Table 2); format: cell-based; settings: Staphylococcus aureus, N24721; strain N247-21; agar dilution; Mueller Hinton medium; 10^6 CFU/ml; read-out: MIC
Protocol: (§5) DMPPC: Methicillin, KM: Kanamycin, GM: Gentamycin, EM: Erythromycin (Note
(§6) Determined by the agar dilution method. Medium: Mueller Hinton medium
(§7) (Difco, USA) Inoculum Size: 10^6 CFU/ml, 37° C.

Staphylococcus aureus C7 = test: as above; format: cell-based; settings: Staphylococcus aureus; strain C7; agar dilution; Mueller Hinton medium; 10^6 CFU/ml; read-out: MIC
Protocol: as §5, §6, §7

[20] = test system: Staphylococcus aureus N83; test: as above; format: cell-based; settings: Staphylococcus aureus; strain N83; agar dilution; Mueller Hinton medium; 10^6 CFU/ml; read-out: MIC
Protocol: as §5, §6, §7

[21] = test system: Staphylococcus aureus N64; test: as above; format: cell-based; settings: Staphylococcus aureus; strain N64; agar dilution; Mueller Hinton medium; 10^6 CFU/ml; read-out: MIC
Protocol: as §5, §6, §7

Staphylococcus aureus C4 = test: as above; format: cell-based; settings: Staphylococcus aureus, C4
Protocol: as §5, §6, §7

[22] = test system: Staphylococcus aureus N176-3; test: as above; format: cell-based; settings: Staphylococcus aureus, N1763; strain N176-3; agar dilution; Mueller Hinton medium; 10^6 CFU/ml; read-out: MIC
Protocol: as §5, §6, §7

[23] = test system: Staphylococcus aureus N237; test: as above; format: cell-based; settings: Staphylococcus aureus; strain N237; agar dilution; Mueller Hinton medium; 10^6 CFU/ml; read-out: MIC
Protocol: as §5, §6, §7

[24] = test system: Clostridium perfringens PB6K; test: microbe, parasite or virus in culture; format: cell-based; settings: 18 h

SMILES: CN(C(=O)C[C@@H](N)CCCNC(=N)N)[C@H]1CNC(NC(N)=O)=NC1=O [TAN-1057A]
- MIC [1]: 3.13 µg/mL (≈ 8.81 µM)
- MIC [2]: 25 µg/mL (≈ 70.3 µM)
- MIC [3]: 100 µg/mL (≈ 281 µM)
- MIC [4]: 6.25 µg/mL (≈ 17.6 µM)
- MIC [5]: 3.13 µg/mL (≈ 8.81 µM)
- MIC [6]: 12.5 µg/mL (≈ 35.2 µM)
- MIC [7]: 100 µg/mL (≈ 281 µM)
- MIC [8]: > 100 µg/mL
- MIC [9]: 12.5 µg/mL (≈ 35.2 µM)
- MIC (Aeromonas caviae NCW): 12.5 µg/mL (≈ 35.2 µM)
- MIC [10]: > 100 µg/mL
- MIC (Bacillus cereus FDA 5): 25 µg/mL (≈ 70.3 µM)
- MIC [11]: 12.5 µg/mL (≈ 35.2 µM)
- MIC (Escherichia coli LD-2): 12.5 µg/mL (≈ 35.2 µM)
- MIC [12]: 3.13 µg/mL (≈ 8.81 µM)
- MIC [13]: 6.25 µg/mL (≈ 17.6 µM)
- MIC [14]: > 100 µg/mL
- MIC [15]: 12.5 µg/mL (≈ 35.2 µM)
- MIC [16]: 0.78 µg/mL (≈ 2.19 µM)
- MIC [17]: 100 µg/mL (≈ 281 µM)
- MIC [18]: 50 µg/mL (≈ 141 µM)
- MIC [19]: 0.78 µg/mL (≈ 2.19 µM)
- MIC (Staphylococcus aureus C7): 0.78 µg/mL (≈ 2.19 µM)
- MIC [20]: 0.39 µg/mL (≈ 1.1 µM)
- MIC [21]: 0.78 µg/mL (≈ 2.19 µM)
- MIC (Staphylococcus aureus C4): 6.25 µg/mL (≈ 17.6 µM)
- MIC [22]: 1.56 µg/mL (≈ 4.39 µM)
- MIC [23]: 0.78 µg/mL (≈ 2.19 µM)
- MIC [24]: 12.5 µg/mL (≈ 35.2 µM)
